According to the supplement of paper PMC10307832:

What was measured:
Assay in all cases: relative viability (nuclei count vs DMSO), 5 days (fraction); higher = more cells survive
Ibrutinib + Dasatinib = compound: C=CC(=O)N1CCC[C@@H](n2nc(-c3ccc(Oc4ccccc4)cc3)c3c(N)ncnc32)C1 [Ibrutinib] + Cc1nc(Nc2ncc(C(=O)Nc3c(C)cccc3Cl)s2)cc(N2CCN(CCO)CC2)n1 [Dasatinib] (partner 0.075 µM)
Method in brief: (§1)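 One day after seeding in 1536-well plates, lung cancer cell lines were dosed by pin tool. Dosing was either single-drug or a fixed anchor-drug dose plus five library-drug doses (not always all listed) in √10 steps. After 5 days, nuclei were stained in one fix-and-stain step and counted on 4× images, and relative viability is the nuclei count of treated wells over that of vehicle wells, given as the median of duplicate plates.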

BMX-IN-1 + Tozasertib = compound: C=CC(=O)Nc1cc(-n2c(=O)ccc3cnc4ccc(-c5ccc(NS(C)(=O)=O)cc5)cc4c32)ccc1C [BMX-IN-1] + Cc1cc(Nc2cc(N3CCN(C)CC3)nc(Sc3ccc(NC(=O)C4CC4)cc3)n2)n[nH]1 [Tozasertib] (partner 0.1 µM)
Method in brief: as §1

PAC-1 + Lapatinib = compound: C=CCc1cccc(/C=N/NC(=O)CN2CCN(Cc3ccccc3)CC2)c1O [PAC-1] + CS(=O)(=O)CCNCc1ccc(-c2ccc3ncnc(Nc4ccc(OCc5cccc(F)c5)c(Cl)c4)c3c2)o1 [Lapatinib] (partner 2 µM)
Method in brief: as §1

PAC-1 + Crizotinib = compound: C=CCc1cccc(/C=N/NC(=O)CN2CCN(Cc3ccccc3)CC2)c1O [PAC-1] + C[C@@H](Oc1cc(-c2cnn(C3CCNCC3)c2)cnc1N)c1c(Cl)ccc(F)c1Cl [Crizotinib] (partner 1 µM)
Method in brief: as §1

Row | Cell Line | relative viability (Ibrutinib + Dasatinib; first compound 0.005 µM) | relative viability (Ibrutinib + Dasatinib; first compound 0.01581 µM) | relative viability (Ibrutinib + Dasatinib; first compound 0.05 µM) | relative viability (Ibrutinib + Dasatinib; first compound 0.1581 µM) | relative viability (Ibrutinib + Dasatinib; first compound 0.5 µM) | relative viability (BMX-IN-1 + Tozasertib; first compound 0.02 µM) | relative viability (BMX-IN-1 + Tozasertib; first compound 0.2 µM) | relative viability (BMX-IN-1 + Tozasertib; first compound 0.6325 µM) | relative viability (BMX-IN-1 + Tozasertib; first compound 2 µM) | relative viability (PAC-1 + Lapatinib; first compound 0.02 µM) | relative viability (PAC-1 + Lapatinib; first compound 0.06325 µM) | relative viability (PAC-1 + Lapatinib; first compound 0.2 µM) | relative viability (PAC-1 + Lapatinib; first compound 2 µM) | relative viability (PAC-1 + Crizotinib; first compound 0.02 µM) | relative viability (PAC-1 + Crizotinib; first compound 0.06325 µM) | relative viability (PAC-1 + Crizotinib; first compound 0.2 µM) | relative viability (PAC-1 + Crizotinib; first compound 2 µM)
1 | NCI-H650 | 0.408 | 0.484 | 0.378 | 0.491 | 0.465 | 0.753 | 0.838 | 0.739 | 0.764 | 1.09 | 1.05 | 0.668 | 0.747 | 0.591 | 0.653 | 0.825 | 0.72
2 | NCI-H661 | 0.626 | 0.581 | 0.417 | 0.842 | 0.425 | 0.378 | 0.358 | 0.352 | 0.348 | 0.313 | 0.541 | 0.552 | 0.445 | 0.927 | 1.06 |  | 1.06
3 | NCI-H727 |  | 0.393 | 0.424 |  | 0.298 | 0.691 | 0.646 | 0.572 | 0.597 | 0.717 | 0.674 | 0.801 | 0.884 | 0.847 | 0.841 | 0.898 | 0.821
4 | NCI-H838 | 0.327 | 0.286 | 0.297 | 0.251 | 0.289 | 0.322 | 0.318 | 0.279 | 0.313 | 0.931 | 0.968 | 0.83 | 1.01 | 0.776 | 0.758 | 0.801 | 0.92
5 | NCI-H1355 | 0.527 | 0.647 | 0.718 | 0.623 | 0.677 | 0.607 | 0.664 | 0.532 | 0.518 | 0.97 | 0.977 | 0.929 | 1.11 | 1.08 | 1.08 | 1.17 | 1.03
6 | NCI-H1437 | 0.313 | 0.39 | 0.375 | 0.217 | 0.362 | 0.497 | 0.43 | 0.38 | 0.414 | 0.758 | 0.828 | 0.751 | 0.679 | 0.883 | 0.913 | 0.85 | 0.68
7 | NCI-H1650 | 0.304 | 0.281 | 0.321 | 0.369 | 0.346 | 0.374 | 0.503 | 0.364 | 0.41 | 0.749 | 0.875 | 0.675 | 0.668 | 0.936 | 1.09 | 0.898 | 1.03
8 | NCI-H1651 | 0.446 | 0.386 | 0.368 | 0.352 | 0.428 | 0.848 | 1 | 0.735 | 0.731 | 0.757 | 0.8 | 0.725 | 0.855 | 0.815 | 0.898 | 0.874 | 0.755
9 | NCI-H1666 | 0.841 | 0.807 | 0.803 | 0.896 | 0.706 | 0.595 | 0.57 | 0.624 | 0.593 | 0.613 | 0.608 | 0.911 | 0.663 | 0.981 | 0.897 | 1.05 | 1
